Structures can show the parent of a compound that is named as a salt. Marks after values point to notes of the source that are not given here.
Key:
[1] = tested on: C. elegans; test: WorMotel-based locomotion tracking (single dosing); assay type: in vivo, Caenorhabditis elegans; settings: for increase in maximal baseline activity compared to the untreated control: baseline = prior to blue light stimulus; for increase in total number of healthy days (locomotion-based health span) versus untreated control: days with activity >15% of mean maximal activity of untreated control
Method: (§1) During the ‘single dosing assay’, we used the WorMotel platform for long-term recurrent imaging of C. elegans^3. This semi-automated platform allows for unbiased longitudinal monitoring of C. elegans aging phenotypes, including daily measurements of survival as well as locomotion quantification. From the onset of adulthood, animals were confined to individual wells in screening plates (i.e. microfabricated WorMotel chips prepared as described in^3) that were seeded with E. coli HT115(DE3) as a food source and supplemented with the corresponding compounds at different doses (Table 1). Four replicate screening plates were assayed, with all four tested conditions present on each screening plate (in randomized locations). Animals were kept on the same screening plates for the duration of the experiment (i.e. 30 days). The time of death is determined as the final time of nonzero movement. Note that this imaging platform is incompatible with repeated dosing. We used the statistical software R to construct Kaplan-Meier survival curves, calculate mean and median life span and carry out all related statistical analyses. To compare survival between two conditions, log-rank tests were used (i.e. survdiff function of the survival package, adjusted for multiple comparisons via the Benjamini-Hochberg method). The corresponding p-values are referred to as plog-rank.
(§2) Locomotion of C. elegans is characterized by sinusoidal movements (i.e. body bends), and progressively diminishes during adult life. As in other animals, maintenance of coordinated movement is considered a prime health span parameter^5.
Each imaging period, the mean and maximum locomotion activity before and after a blue light stimulus are quantified (as described in^3). The resulting activity values are termed ‘baseline locomotion’ and ‘stimulated locomotion’, respectively. […] An increase in ‘healthy days’ is indicative for an increase in locomotion-based healthspan. Results were analyzed using one-way and two-way ANOVAs, with the Holm-Sidak correction for multiple comparisons in GraphPad Prism software. All corresponding p-values are referred to as pANOVA.

[2] = tested on: C. elegans; test: Camera-based locomotion tracking (repeated dosing); assay type: in vivo, Caenorhabditis elegans; settings: Table 2, day 7 post-reproductive adults; for Cell occupancy ± SEM: squares of 1 mm^2
Source text: as §2
To quantify locomotion effects in more detail, we utilized an automated tracking system for C. elegans that is compatible with standard petri plates. The multi-camera tracking system allows for objective quantification of mean locomotion speed, maximal locomotion speed and multiple behavioral parameters via path-based image analysis. The system was utilized similar to Peymen et al^8. Two distinct assays were performed. In a first assay (Table 2), the locomotion effects of Gal, Met and a combination of both compounds was assayed. This allowed to test for synergetic effects between Gal and Met on multiple locomotion parameters. In a second assay (Table 3), we characterized the locomotion effects of the combination of Met with different acetylcholinesterase inhibitors (i.e. Gal, Don and Riv), as well as the combination of Met with the acetylcholinesterase inhibitor-like compound Mem. As such, we were able to test whether there is a class effect of acetylcholinesterase inhibitors as a whole (in combination with Met). Synchronized wild-type animals were grown in the presence of the corresponding compounds at different doses from the L4 stage (i.e. day 0) and FUdR, until the start of the measurement. Animals were re-dosed thrice (at day 2, 4 and 7) via transfer to fresh compound-treated NGM plates. Prior to imaging, for each replicate 20 well-fed living animals were manually transferred from their culture plate to an unseeded NGM plate, and after 5 min transferred to another unseeded NGM plate used for imaging. Image acquisition took place with StreamPix 6 multicamera software (GigE PRO GP11004M camera with KOWA LM16JC10M lens) for 11 min at 2 fps and a constant exposure, after which worms were tracked using custom particle-tracking MATLAB code. For each mobile animal (i.e. an animal that moved for at least 2 min during the imaging period), both mean and maximal locomotion speeds were extracted, as well as the behavioral metrics ‘cell occupancy’ and ‘fraction running’. The latter represents the fraction of time that an animal was detected to be running (as opposed to pausing or turning). Cell occupancy is a metric quantifying the spatial search efficiency of a worm. Cell occupancy values represent the number of unique cells (squares of 1 mm^2) that the worm visited during the imaging period. Both behavioral parameters decline during aging. Experiments were performed in triplicate (or quadruplicate), with 20 worms per condition per replicate. The results were analyzed using multiple t testing, with the Holm-Sidak correction for multiple comparisons, in GraphPad Prism software. The corresponding p-values are referred to as p.

[3] = tested on: wild-type C. elegans N2 strain; test: Life span assay, repeated dosing (manual scoring on NGM agar plates); assay type: in vivo, Caenorhabditis elegans; settings: for Decrease MLS versus combo Met25 + Gal100 / Increase MLS versus untreated control / Max LS / Median LS: repeated dosing; for MLS ± SEM (mean life span): repeated dosing from first day of adulthood; for Max LS: day on which 10% of the animals are still alive; for Median LS: day on which 50% of the animals are still alive
Method: (§3) The wild-type C. elegans N2 strain was obtained from the Caenorhabditis Genetic Center (University of Minnesota, USA) and was cultivated at 20° C. on standard nematode growth medium (NGM) seeded with a thin layer of Escherichia coli OP50, unless stated otherwise. Life span of C. elegans was measured analogous to methods described earlier^1,2. The first day of adulthood was always recorded as day 0. FUdR (5-fluoro-2′-deoxyuridine, Sigma-Aldrich) was used in all life span assays to avoid progeny production. Multiple independent assays were carried out. A minimum of 100 animals per condition per assay was used, as to ensure sufficient statistical power.
During the ‘repeated dosing assay’, we followed the standard method in the field (i.e. manual inspection of survival of age-synchronized populations on bacteria-coated agar plates^2), which is robust and technically relatively simple. In short, at the onset of adulthood, animals were transferred to standard NGM assay plates (untreated control) or NGM assay plates supplemented with the corresponding compounds at different doses (Table 1). Animals were transferred to fresh standard NGM assay plates or fresh NGM assay plates supplemented with the corresponding compounds at different doses thrice in the first week and weekly thereafter (for a total duration of 33 days). This dosing schedule is in accordance with standardized protocols from the Caenorhabditis Intervention Testing Program (CITP)^4. Met was added to the NGM prior to autoclaving, whereas Gal was pipetted onto the seeded assay plates (at least two hours prior to transferring animals on to the assay plates). A same volume of liquid was added to all plates, also to plates of the untreated control and Met condition (i.e. mock treatment). Animals that crawled off the assay plates or died of internal hatching were censored. The number of live and dead worms was scored every one to two days.

[4] = tested on: C. elegans sarcomere myofilaments; test: Quantifying muscle morphology and deterioration (myo-3p::MYO-3::GFP, strain RW1596); assay type: in vivo, Caenorhabditis elegans; settings: late adulthood (day 14)
Source text: Sarcomeres are fundamental muscle units, responsible for muscle contraction. C. elegans' sarcomeres consist of alternated filaments containing myosin and actin, similar to sarcomeres of vertebrates. While sarcomere myofilaments in the body wall of young animals are organized in parallel symmetric rows, sarcomere myofilaments in older animals become progressively disorganized with a more irregular shape and orientation.
By using a transgenic reporter strain that has a fusion of myosin heavy chain with fluorescent GFP (strain RW1596; myo-3p::MYO-3::GFP), muscle structure of C. elegans can be visualized in vivo. Combined with confocal microscopy and bioinformatic analysis this offers not only qualitative, but also quantitative readouts for the assessment of the organizational level of muscle fibers. An analytical method to quantify muscle deterioration has been optimized at the laboratory of Prof. Bart Braeckman (UGent; unpublished data). We used this technique to verify whether animals treated with Gal and/or Met, display a muscle phenotype resembling that of younger untreated individuals. […]
For each animal, the two morphological metrics ‘aspect ratio’ and ‘smoothness’ were extracted. […] The aspect ratio is calculated as the ratio of the length of the major axis (=length) and the length of the minor axis (=width) for individual myofilaments within a sarcomere. […]

[5] = tested on: glutathione S-transferase 4 (gst-4) gene transcription; test: In vivo gene activity assay (gst-4p::GFP reporter); set-up: species or system Caenorhabditis elegans; settings: GFP fluorescence; treated from L1 until late L4 stage
Source text: The transparent body of C. elegans allows for straightforward and non-invasive measurements of in vivo gene transcription via transgenic fluorescent reporters^9. We measured transcription of the gst-4p::GFP C. elegans GFP reporter to gain insight into the intracellular signaling networks that are affected by Met and/or Gal. Additionally, we tested whether Met and Gal have a synergistic or potentiating effect on activation of gst-4 gene transcription.
The gst-4 gene encodes for the cytoprotective and drug-metabolizing enzyme glutathione S-transferase 4 (GST-4). Gst-4 is a direct target of SKN-1, an ortholog of the mammalian Nuclear Factor E2-Related Factor (Nrf2) protein family that is a key transcription factor involved in the protection against oxidative and xenobiotic stresses. […] In C. elegans aging research, transcriptional activation of gst-4 is often used as a read-out for SKN-1 activity. […] GFP fluorescence was quantified using an automated method, as described earlier^11. In short: JMET69 animals with genotype ls[gst-4(1491 bp)::gfp;unc-119(+)];ls[unc-54^p::mCherry;unc-119(+)] were grown in the presence and absence of drugs (i.e. Met and/or Gal) on NGM plates seeded with E. coli OP50, from the L1 until the late L4 stage, before transfer to a 96 well plate for fluorescence quantification. […]

[6] = tested on: wild-type C. elegans N2 strain; test: Life span assay, single dosing (WorMotel platform); assay type: in vivo, Caenorhabditis elegans; settings: for Decrease MLS versus combo Met25 + Gal100 / Increase MLS versus untreated control / Max LS / Median LS / survival compared to the untreated control: single dosing; for MLS ± SEM (mean life span): single dosing at first day of adulthood, pooled assays; for Max LS: day on which 10% of the animals are still alive; for Median LS: day on which 50% of the animals are still alive; for survival compared to the untreated control: log-rank test
Method: as §3, §1

## CN(C)C(=N)NC(=N)N.Cl [Met 25, 1,1-Dimethylbiguanide hydrochloride]
[1]
  increase in maximal baseline activity compared to the untreated control: 35%
  increase in total number of healthy days (locomotion-based health span) versus untreated control: +14%
[2]
  Fraction running ± SEM: 67 ± 2 %
  Maximal speed ± SEM: 262 ± 8 ^NS μm/s
  Mean speed ± SEM: 102 ± 5 μm/s
  Cell occupancy ± SEM: 28 ± 3 unique areas visited
[3]
  Decrease MLS versus combo Met25 + Gal100: −8.3%
  Increase MLS versus untreated control: +11.9% ****
  MLS ± SEM (mean life span): 17.68 ± 0.50 days
  Max LS: 23 days
  Median LS: 18 days
[4]
  sarcomere aspect ratio versus untreated control (in words): no significant increases in aspect ratio
[5]
  gst-4 transcription level change compared to the untreated control: +26%
[6]
  Decrease MLS versus combo Met25 + Gal100: −6.7% *
  Increase MLS versus untreated control: +9.6% **
  MLS ± SEM (mean life span): 19.08 ± 0.58 days
  Max LS: 28 days
  Median LS: 20 days
  survival compared to the untreated control: significantly increased survival

## COc1ccc2c3c1O[C@H]1C[C@@H](O)C=C[C@@]31CCN(C)C2 [Gal 100, Galantamine hydrobromide]
[1]
  increase in maximal baseline activity compared to the untreated control: 15%
  increase in total number of healthy days (locomotion-based health span) versus untreated control: +20%
[2]
  Fraction running ± SEM: 48 ± 2 ^NS %
  Maximal speed ± SEM: 270 ± 17 ^NS μm/s
  Mean speed ± SEM: 48 ± 4 ^NS μm/s
  Cell occupancy ± SEM: 11 ± 1 ^NS unique areas visited
[3]
  Decrease MLS versus combo Met25 + Gal100: −12.5% ****
  Increase MLS versus untreated control: +6.8% *
  MLS ± SEM (mean life span): 16.87 ± 0.32 days
  Max LS: 22 days
  Median LS: 17 days
[4]
  sarcomere aspect ratio versus untreated control (in words): no significant increases in aspect ratio
[5]
  gst-4 transcription level change compared to the untreated control: +9%
[6]
  Decrease MLS versus combo Met25 + Gal100: −3.9% *
  Increase MLS versus untreated control: +12.8% ***
  MLS ± SEM (mean life span): 19.63 ± 0.44 days
  Max LS: 27 days
  Median LS: 20 days
  survival compared to the untreated control: significantly increased survival
